# Reference: patent US20240294508A1, “RIP1 MODULATORS INCLUDING AZETIDINE CYCLIC UREAS, PREPARATIONS, AND USES THEREOF” (SIRONAX LTD., priority 2021, published 2024)
# Tested on: HT-29 cells
# Experiment: HT29 cells 0FBS assay in vitro: TNF-α/SMAC mimetic/zVAD-FMK induced necroptosis, CellTiter-Glo cell viability (RIP1 inhibitory activity)
# Format: cell-based
# Details: Homo sapiens, FBS free medium, TNF-α (10 ng/ml) + SMAC mimetic (6 uM) + zVAD-FMK (10 μM), 20 hours, geometric mean EC50
# Procedure, shortened: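 Luminescent ATP read-out (CellTiter-Glo) gave viability of HT-29 cells after 20 h at 37° C in serum-free medium containing compound and a necroptosis cocktail of 10 ng/ml TNF-α, 6 uM SMAC mimetic and 10 μM zVAD-FMK. EC50s are geometric means of 10-point curves run in duplicate.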
row,SMILES,EC50
1,"Cc1nn(-c2cc(OC3CN(C(=O)N4N=CC[C@@H]4c4cc(F)cc(Cl)c4)C3)c(F)cn2)c(C)c1C(N)=O [Compound 134, (R)-1-(4-((1-(5-(3-chloro-5-fluorophenyl)-4,5-dihydro-1H-pyrazole-1-carbonyl)azetidin-3-yl)oxy)-5-fluoropyridin-2-yl)-3,5-dimethyl-1H-pyrazole-4-carboxamide]",100 to 1000 nM
2,"Cc1cc(F)cc([C@@H]2CC=NN2C(=O)N2CC(Oc3cc(-n4nc(C)c(C(N)=O)c4C)ncc3F)C2)c1 [Compound 135, (S)-1-(5-fluoro-4-((1-(5-(3-fluoro-5-methylphenyl)-4,5-dihydro-1H-pyrazole-1-carbonyl)azetidin-3-yl)oxy)pyridin-2-yl)-3,5-dimethyl-1H-pyrazole-4-carboxamide]",0.1 to 100 nM
3,"Cc1cc(F)cc([C@H]2CC=NN2C(=O)N2CC(Oc3cc(-n4nc(C)c(C(N)=O)c4C)ncc3F)C2)c1 [Compound 136, (R)-1-(5-fluoro-4-((1-(5-(3-fluoro-5-methylphenyl)-4,5-dihydro-1H-pyrazole-1-carbonyl)azetidin-3-yl)oxy)pyridin-2-yl)-3,5-dimethyl-1H-pyrazole-4-carboxamide]",100 to 1000 nM
4,"Cc1cnc([C@H]2CC=NN2C(=O)N2CC(Oc3cc(-c4c(C)cnn4C)ncc3F)C2)s1 [Compound 137, (R)-(3-((2-(1,4-dimethyl-1H-pyrazol-5-yl)-5-fluoropyridin-4-yl)oxy)azetidin-1-yl)(5-(5-methylthiazol-2-yl)-4,5-dihydro-1H-pyrazol-1-yl)methanone]",1000 to 10000 nM
5,"Cc1cnc([C@@H]2CC=NN2C(=O)N2CC(Oc3cc(-c4c(C)cnn4C)ncc3F)C2)s1 [Compound 138, (S)-(3-((2-(1,4-dimethyl-1H-pyrazol-5-yl)-5-fluoropyridin-4-yl)oxy)azetidin-1-yl)(5-(5-methylthiazol-2-yl)-4,5-dihydro-1H-pyrazol-1-yl)methanone]",0.1 to 100 nM
6,"Cc1cnc(C2CC=NN2C(=O)N2CC(Oc3nc(-c4ccnn4C)c(F)cc3F)C2)s1 (stereo not drawn) [Compound 139, (3-((3,5-difluoro-6-(1-methyl-1H-pyrazol-5-yl)pyridin-2-yl)oxy)azetidin-1-yl)(5-(5-methylthiazol-2-yl)-4,5-dihydro-1H-pyrazol-1-yl)methanone]",0.1 to 100 nM
7,"Cc1nn(-c2cc(OC3CN(C(=O)N4N=CC[C@H]4c4cc(F)cc(Cl)c4)C3)c(F)cn2)c(C)c1C(=O)O [Compound 140, (S)-1-(4-((1-(5-(3-chloro-5-fluorophenyl)-4,5-dihydro-1H-pyrazole-1-carbonyl)azetidin-3-yl)oxy)-5-fluoropyridin-2-yl)-3,5-dimethyl-1H-pyrazole-4-carboxylic acid]",0.1 to 100 nM
8,"Cc1nn(-c2cc(OC3CN(C(=O)N4N=CC[C@@H]4c4cc(F)cc(Cl)c4)C3)c(F)cn2)c(C)c1C(=O)O [Compound 141, (R)-1-(4-((1-(5-(3-chloro-5-fluorophenyl)-4,5-dihydro-1H-pyrazole-1-carbonyl)azetidin-3-yl)oxy)-5-fluoropyridin-2-yl)-3,5-dimethyl-1H-pyrazole-4-carboxylic acid]",100 to 1000 nM
9,"Cc1cc(F)cc([C@@H]2CC=NN2C(=O)N2CC(Oc3cc(-n4nc(C)c(C(=O)O)c4C)ncc3F)C2)c1 [Compound 142, (S)-1-(5-fluoro-4-((1-(5-(3-fluoro-5-methylphenyl)-4,5-dihydro-1H-pyrazole-1-carbonyl)azetidin-3-yl)oxy)pyridin-2-yl)-3,5-dimethyl-1H-pyrazole-4-carboxylic acid]",0.1 to 100 nM
10,"Cc1cc(F)cc([C@H]2CC=NN2C(=O)N2CC(Oc3cc(-n4nc(C)c(C(=O)O)c4C)ncc3F)C2)c1 [Compound 143, (R) 1-(5-fluoro-4-((1-(5-(3-fluoro-5-methylphenyl)-4,5-dihydro-1H-pyrazole-1-carbonyl)azetidin-3-yl)oxy)pyridin-2-yl)-3,5-dimethyl-1H-pyrazole-4-carboxylic acid]",100 to 1000 nM
11,"Cc1cnn(C)c1-c1cc(OC2CN(C(=O)N3N=CCC3c3nc(C)c(C)s3)C2)c(F)cn1 (stereo not drawn) [Compound 144, (3-((2-(1,4-dimethyl-1H-pyrazol-5-yl)-5-fluoropyridin-4-yl)oxy)azetidin-1-yl)(5-(4,5-dimethylthiazol-2-yl)-4,5-dihydro-1H-pyrazol-1-yl)methanone]",100 to 1000 nM
12,"Cc1cnn(C)c1-c1cc(OC2CN(C(=O)N3N=CCC3c3ccn(C)c3)C2)c(F)cn1 (stereo not drawn) [Compound 145, (3-((2-(1,4-dimethyl-1H-pyrazol-5-yl)-5-fluoropyridin-4-yl)oxy)azetidin-1-yl)(5-(1-methyl-1H-pyrrol-3-yl)-4,5-dihydro-1H-pyrazol-1-yl)methanone]",0.1 to 100 nM
13,"Cc1cnn(C)c1-c1csc(OC2CN(C(=O)N3N=CC[C@H]3c3cc(F)cc(F)c3)C2)n1 [Compound 146, (S)-(5-(3,5-difluorophenyl)-4,5-dihydro-1H-pyrazol-1-yl)(3-((4-(1,4-dimethyl-1H-pyrazol-5-yl)thiazol-2-yl)oxy)azetidin-1-yl)methanone]",0.1 to 100 nM
14,"Cn1nccc1-c1csc(OC2CN(C(=O)N3N=CC[C@H]3c3cc(F)cc(F)c3)C2)n1 [Compound 147, (S)-(5-(3,5-difluorophenyl)-4,5-dihydro-1H-pyrazol-1-yl)(3-((4-(1-methyl-1H-pyrazol-5-yl)thiazol-2-yl)oxy)azetidin-1-yl)methanone]",0.1 to 100 nM
15,"Cc1cnn(C)c1-c1nc(OC2CN(C(=O)N3N=CC[C@H]3c3cc(F)cc(F)c3)C2)sc1Cl [Compound 149, (S)-(3-((5-chloro-4-(1,4-dimethyl-1H-pyrazol-5-yl)thiazol-2-yl)oxy)azetidin-1-yl)(5-(3,5-difluorophenyl)-4,5-dihydro-1H-pyrazol-1-yl)methanone]",0.1 to 100 nM
16,"Cn1ncc(C#N)c1-c1csc(OC2CN(C(=O)N3N=CC[C@H]3c3cc(F)cc(F)c3)C2)n1 [Compound 150, (S)-5-(2-((1-(5-(3,5-difluorophenyl)-4,5-dihydro-1H-pyrazole-1-carbonyl)azetidin-3-yl)oxy)thiazol-4-yl)-1-methyl-1H-pyrazole-4-carbonitrile]",0.1 to 100 nM
17,"Cc1cnn(C)c1-c1nc(OC2CN(C(=O)N3N=CC[C@H]3c3cncc(F)c3)C2)sc1C#N [Compound 152, (S)-4-(1,4-dimethyl-1H-pyrazol-5-yl)-2-((1-(5-(5-fluoropyridin-3-yl)-4,5-dihydro-1H-pyrazole-1-carbonyl)azetidin-3-yl)oxy)thiazole-5-carbonitrile]",0.1 to 100 nM
18,"Cn1nccc1-c1cnc(OC2CN(C(=O)N3N=CC[C@H]3c3cc(F)cc(F)c3)C2)s1 [Compound 153, (S)-(5-(3,5-difluorophenyl)-4,5-dihydro-1H-pyrazol-1-yl)(3-((5-(1-methyl-1H-pyrazol-5-yl)thiazol-2-yl)oxy)azetidin-1-yl)methanone]",0.1 to 100 nM
19,"Cc1cnn(C)c1-c1cnc(OC2CN(C(=O)N3N=CC[C@H]3c3cc(F)cc(F)c3)C2)s1 [Compound 154, (S)-(5-(3,5-difluorophenyl)-4,5-dihydro-1H-pyrazol-1-yl)(3-((5-(1,4-dimethyl-1H-pyrazol-5-yl)thiazol-2-yl)oxy)azetidin-1-yl)methanone]",0.1 to 100 nM
20,"Cc1cnn(C)c1-c1nc(OC2CN(C(=O)N3N=CC[C@H]3c3cc(F)cc(F)c3)C2)sc1CO [Compound 157, (S)-(5-(3,5-difluorophenyl)-4,5-dihydro-11H-pyrazol-1-yl)(3-((4-(1,4-dimethyl-1H-pyrazol-5-yl)-5-(hydroxymethyl)thiazol-2-yl)oxy)azetidin-1-yl)methanone]",1000 to 10000 nM
21,"Cc1cnn(C)c1-c1nc(OC2CN(C(=O)N3N=CCC3c3cc(F)cc(F)c3)C2)c(F)cc1F (stereo not drawn) [Compound 158, (5-(3,5-difluorophenyl)-4,5-dihydro-1H-pyrazol-1-yl)(3-((6-(1,4-dimethyl-1H-pyrazol-5-yl)-3,5-difluoropyridin-2-yl)oxy)azetidin-1-yl)methanone]",0.1 to 100 nM
22,"Cc1nn(-c2cc(OC3CN(C(=O)N4N=CC[C@H]4c4cc(F)cc(F)c4)C3)c(Cl)cn2)c(C)c1C#N [Compound 159, (S)-1-(5-chloro-4-((1-(5-(3,5-difluorophenyl)-4,5-dihydro-1H-pyrazole-1-carbonyl)azetidin-3-yl)oxy)pyridin-2-yl)-3,5-dimethyl-1H-pyrazole-4-carbonitrile]",0.1 to 100 nM
23,"Cc1nn(-c2cc(OC3CN(C(=O)N4N=CC[C@H]4c4cc(F)cc(F)c4)C3)c(Cl)cn2)c(C)c1C(N)=O [Compound 160, (S)-1-(5-chloro-4-((1-(5-(3,5-difluorophenyl)-4,5-dihydro-1H-pyrazole-1-carbonyl)azetidin-3-yl)oxy)pyridin-2-yl)-3,5-dimethyl-1H-pyrazole-4-carboxamide]",0.1 to 100 nM
24,"Cc1cnn(C)c1-c1cc(OC2CN(C(=O)C3=NNCC3c3cc(F)cc(F)c3)C2)c(F)cn1 (stereo not drawn) [Compound 161, (4-(3,5-difluorophenyl)-4,5-dihydro-1H-pyrazol-3-yl)(3-((2-(1,4-dimethyl-1H-pyrazol-5-yl)-5-fluoropyridin-4-yl)oxy)azetidin-1-yl)methanone]",0.1 to 100 nM
25,"Cc1nn(-c2cc(OC3CN(C(=O)C4=NNCC4c4cc(F)cc(F)c4)C3)c(F)cn2)c(C)c1C(N)=O (stereo not drawn) [Compound 162, 1-(4-((1-(4-(3,5-difluorophenyl)-4,5-dihydro-1H-pyrazole-3-carbonyl)azetidin-3-yl)oxy)-5-fluoropyridin-2-yl)-3,5-dimethyl-1H-pyrazole-4-carb oxamide]",0.1 to 100 nM
26,"COc1ncccc1-c1ncc(F)c(OC2CN(C(=O)N3N=CC[C@H]3c3cc(F)cc(F)c3)C2)n1 [Compound 163, (S)-(5-(3,5-difluorophenyl)-4,5-dihydro-1H-pyrazol-1-yl)(3-((5-fluoro-2-(2-methoxypyridin-3-yl)pyrimidin-4-yl)oxy)azetidin-1-yl)methanone]",0.1 to 100 nM
27,"COc1ncccc1-c1cc(OC2CN(C(=O)N3N=CC[C@H]3c3cc(F)cc(F)c3)C2)c(F)cn1 [Compound 164, (S)-(5-(3,5-difluorophenyl)-4,5-dihydro-1H-pyrazol-1-yl)(3-((5-fluoro-2′-methoxy-[2,3′-bipyridin]-4-yl)oxy)azetidin-1-yl)methanone]",0.1 to 100 nM
